Measured values published in patent US8927504B2, “Combined use of dipeptidyl peptidase 4 inhibitor and sweetener” (Mitsubishi Tanabe Pharma Corporation, priority 2007, dated 2015).

Columns and labels:
GLP-1 = conditions: Shima et al., Acta Endocrinologica 1990; cited from earlier work
active GLP-1 in plasma [1] = test: GLP-1 secretion-stimulating action by combined use of DPP4 inhibitor and sweetener (3), Example 5; type: in vivo, mouse; conditions: C57BL/6J mice, mean ± SEM, n = 5
Description: Purified water was administered orally (10 mL/kg) as a control.
D-mannitol (Wako Pure Chemical Industries, Ltd.) at 3 g/kg, melibiose (Wako Pure Chemical Industries, Ltd.) at 6 g/kg or acesulfame K (Wako Pure Chemical Industries, Ltd.) at 3 g/kg was used as sweetener and administered orally (10 mL/kg). Purified water was administered orally (10 mL/kg) as a control.

[2] = Body weight-reducing test using DIO mice (2), Example 6; type: in vivo, mouse; conditions: for Body weight gain after 12 days / Body weight gain after 13 days: high fat diet-fed C57BL/6J mice, mean ± SEM, n = 9; for fat mass (g) as compared with the control group / lean mass (g) in comparison with the control group / body weights as compared with the control group: sweetener 5 w/w % combined with Compound A′ 10 mg/100 g in-feed; for fat mass (g) as compared with the control group / lean mass (g) in comparison with the control group: body composition 15 days after dosing; for body weights as compared with the control group: each of days 2 to 13 (or day 12) after dosing
Description: Testing was carried out in the same manner as (1) of Example 3 above. High fat diet-fed, male C57BL/6J mice housed until age 14 to 22 weeks were used in the test.
The study animals were used in the test after first grouping according to body weight and blood sugar level.
The animals were administered test DPP4 inhibitor and test sweetener in-feed for up to 15 days.
Body weights and food intake were measured over time after the start of administration of the test substances. Testing and analysis of measurement results were carried out in the same manner as (1) of Example 3 above.
In addition, in the case body weight reducing effect was observed, body composition was measured in the same manner as (1) of Example 3 above.
D-mannitol (Wako Pure Chemical Industries, Ltd.), melibiose (Wako Pure Chemical Industries, Ltd.) or acesulfame K (Wako Pure Chemical Industries, Ltd.) was used as sweetener and each was administered in-feed at 5 w/w %. In addition, Compound A′ was administered as DPP4 inhibitor in-feed at 10 mg/100 g.
Body weight reducing-effect was tested for the cases of combined use of each of these sweeteners and DPP4 inhibitor in accordance with the method described in (1) above (n=9 animals per group).

active GLP-1 in plasma [3] = test: GLP-1 secretion-stimulating action by combined use of DPP4 inhibitor and sweetener (2), Example 4; type: in vivo, mouse; conditions: 1 hour after dosing, relative to 100 for Compound A′ and fructooligosaccharide 6 g/kg, C57BL/6J mice
Description: Male C57BL/6J mice (Clea Japan, Inc.) (7-week-old at time of use) were used in the test.
These study animals were used in the test after first fasting starting on the night prior to the test and then grouping according to body weight. The animals were orally administered test DPP4 inhibitor (or purified water as a control) (10 mL/kg). At 30 minutes after administration, the animals were then orally administered (10 mL/kg) a solution of test sweetener (or purified water as a control) followed by collecting blood samples at 0, 30, 60, 180 and 300 minutes after administration. These samples were then measured for concentrations of active GLP-1 in plasma.
Measurement of plasma active GLP-1 concentrations and analysis and testing of the measurement results were carried out in the same manner as (1) of Example 1 above.
Fructooligosaccharide (Meiji Seika Kaisha Ltd.), kestose (Meiji Seika Kaisha Ltd., GF2), raffinose (Wako Pure Chemical Industries, Ltd.), melibiose (Wako Pure Chemical Industries, Ltd.), xylooligosaccharide (Suntory Ltd.), xylose (Wako Pure Chemical Industries, Ltd.), xylitol (Wako Pure Chemical Industries, Ltd.), sorbitol (Wako Pure Chemical Industries, Ltd.), D-mannitol (Wako Pure Chemical Industries, Ltd.), erythritol (Wako Pure Chemical Industries, Ltd.), maltitol (Hayashibara Biochemical Laboratories, Inc.), sucralose (San-Ei Gen F.F.I., Inc.) or acesulfame K (Wako Pure Chemical Industries, Ltd.) was used as sweetener and administered orally (10 mL/kg) at 6 g/kg, 3 g/kg or 1 g/kg.
In addition, (2S)-2-cyano-1-[trans-4-(dimethylaminocarbonyl)cyclohexylamino]acetylpyrrolidine benzenesulfonate (hereafter referred to as Compound A′) as DPP4 inhibitor (or purified water as a control) was used at 10 mg/kg and administered orally (10 mL/kg).
Blood active GLP-1 level-increasing action was tested for the cases of combined use of DPP4 inhibitor and each type of sweetener in accordance with the method described in (1) above (n=4 to 5 animals per group).
Blood active GLP-1 concentrations (1 hour after dosing) in the groups dosed with both each type of sweetener (6 g/kg, 3 g/kg or 1 g/kg) and Compound A′ (10 mg/kg) were represented as relative values with respect to blood active GLP-1 concentrations (1 hour after dosing) in the group dosed with fructooligosaccharide (6 g/kg) and Compound A′.

[4] = Body weight-reducing test using DIO mice (3), Example 7; type: in vivo, mouse; conditions: for Body weight gain After 8 days / Body weight gain After 15 days: sweetener in feed at 5 w/w % combined with Compound A′ in feed at 10 mg/100 g, high fat diet-fed C57BL/6J mice, mean ± SEM, n = 7
Description: Testing was carried out in the same manner as (1) of Example 3 above. High fat diet-fed, male C57BL/6J mice housed until age 16 weeks were used in the test.
The study animals were used in the test after first grouping according to body weight.
The animals were administered test DPP4 inhibitor and test sweetener in-feed for up to 15 days. Body weights and food intake were measured over time after the start of administration of the test substances.
Sorbitol (Wako Pure Chemical Industries, Ltd.) or erythritol (Wako Pure Chemical Industries, Ltd.) was used as sweetener and each was administered in-feed at 5 w/w %. In addition, Compound A′ was administered as DPP4 inhibitor in-feed at 10 mg/100 g. Body weight reducing effect was tested for the cases of combined use of each of these sweeteners and DPP4 inhibitor in accordance with the method described in (1) above (n=7 animals per group).

[5] = DPP4 inhibitor 10 mg/kg orally combined with acesulfame K 3 g/kg orally
[6] = Compound A′ alone in feed at 10 mg/100 g
[7] = sweetener 3 g/kg orally alone (purified water instead of DPP4 inhibitor)
[8] = sweetener 3 g/kg orally combined with Compound A′ 10 mg/kg orally
[9] = sweetener alone 5 w/w % in-feed
[10] = sweetener alone in feed at 5 w/w %
[11] = sweetener in feed at 5 w/w % combined with Compound A′ in feed at 10 mg/100 g
[12] = sweetener 6 g/kg orally combined with Compound A′ 10 mg/kg orally
[13] = sweetener 5 w/w % combined with Compound A′ 10 mg/100 g in-feed
[14] = sweetener alone, separate tests

OC[C@H]1O[C@H](O[C@H]2[C@H](O)[C@@H](O)C(O)O[C@@H]2CO)[C@H](O)[C@@H](O)[C@@H]1O (mixture of isomers) [maltose]
blood GLP-1 levels following administration (GLP-1): blood GLP-1 levels are increased

CN(C)C(=O)[C@H]1CC[C@H](NCC(=O)N2CCC[C@H]2C#N)CC1.O=S(=O)(O)c1ccccc1 (relative stereo) [Compound A′, (2S)-2-cyano-1-[trans-4-(dimethylaminocarbonyl)cyclohexylamino]acetylpyrrolidine benzenesulfonate]
Increase in AUC of Plasma active GLP-1 (active GLP-1 in plasma [1]; DPP4 inhibitor 10 mg/kg orally combined with D-mannitol 3 g/kg orally): 170 ± 27 pM·h | Increase in AUC of Plasma active GLP-1 (active GLP-1 in plasma [1]; [5]): 142 ± 11 pM·h | Increase in AUC of Plasma active GLP-1 (active GLP-1 in plasma [1]; DPP4 inhibitor 10 mg/kg orally combined with melibiose 6 g/kg orally): 228 ± 32 pM·h | body weight as compared with the control group ([2]; Compound A′ alone 10 mg/100 g in-feed): no changes in body weight as compared with the control group | Body weight gain after 12 days [2, 6]: 0.6 ± 0.1 g | Body weight gain after 13 days [2, 6]: 2.0 ± 0.3 g

CC1=CC(=O)NS(=O)(=O)O1 [Acesulfame K, acesulfame potassium]
Increase in AUC of Plasma active GLP-1 (active GLP-1 in plasma [1]; [7]): 51 ± 1 pM·h | Plasma active GLP-1 concentration (relative value) (active GLP-1 in plasma [3]; sweetener 1 g/kg orally combined with Compound A′ 10 mg/kg orally): 149 | Plasma active GLP-1 concentration (relative value) (active GLP-1 in plasma [3]; [8]): 377 | fat mass (g) as compared with the control group [2]: decreased significantly | lean mass (g) in comparison with the control group [2]: no change in lean mass | body weights as compared with the control group [2]: body weights significantly decreased as compared with the control group | body weight as compared with the control group [2, 9]: no significant differences as compared with the control group | Body weight gain after 12 days [2, 10]: -0.5 ± 0.3 g | Body weight gain after 12 days [2, 11]: -1.0 ± 0.4 g

CCC(=O)N1CCN(C2CCC(C)(NCC(=O)N3CCC[C@H]3C#N)CC2)CC1 (stereo partly drawn) [Compound B, (2S)-2-cyano-1-[t-4-(4-propionyl-1-piperazinyl)-1-methyl-r-1-cyclohexylamino]acetyl pyrrolidine]
Increase in AUC of Plasma active GLP-1 (active GLP-1 in plasma [1]; [5]): 153 ± 14 pM·h

O=C[C@H](O)[C@@H](O)[C@@H](O)[C@H](O)CO [D-galactose]
blood GLP-1 levels following administration (GLP-1): blood GLP-1 levels are increased

O=C[C@H](O)[C@@H](O)[C@H](O)[C@H](O)CO [D-glucose]
blood GLP-1 levels following administration (GLP-1): blood GLP-1 levels are increased

OC[C@@H](O)[C@@H](O)[C@H](O)[C@H](O)CO [D-mannitol]
Increase in AUC of Plasma active GLP-1 (active GLP-1 in plasma [1]; [7]): 85 ± 1 pM·h | Plasma active GLP-1 concentration (relative value) (active GLP-1 in plasma [3]; [8]): 160 | Plasma active GLP-1 concentration (relative value) (active GLP-1 in plasma [3]; [12]): 742 | fat mass (g) as compared with the control group [2]: decreased significantly | lean mass (g) in comparison with the control group [2]: no change in lean mass | body weights as compared with the control group [2]: body weights significantly decreased as compared with the control group | body weight as compared with the control group [2, 9]: no significant differences as compared with the control group | Body weight gain after 13 days [2, 10]: 1.1 ± 0.5 g | Body weight gain after 13 days [2, 11]: 0.2 ± 0.7 g

OC[C@@H](O)[C@@H](O)CO [Erythritol, erythritol]
body weights as compared with the control group [4, 13]: decreases in body weights were observed | body weights as compared with the control group [4, 14]: decreases in body weights were not observed | Body weight gain After 8 days [4]: 0.2 ± 0.1 g | Body weight gain After 15 days [4]: 0.9 ± 0.3 g | Plasma active GLP-1 concentration (relative value) (active GLP-1 in plasma [3]; [8]): 147 | Plasma active GLP-1 concentration (relative value) (active GLP-1 in plasma [3]; [12]): 461

OC[C@H]1O[C@@](CO)(OC[C@@]2(O[C@H]3O[C@H](CO)[C@@H](O)[C@H](O)[C@H]3O)O[C@H](CO)[C@@H](O)[C@@H]2O)[C@@H](O)[C@@H]1O [Kestose, glucose-1,2-fructose-1,2-fructose]
Plasma active GLP-1 concentration (relative value) (active GLP-1 in plasma [3]; [12]): 166

O=C[C@H](O)[C@@H](O)[C@H](O)[C@H](O)CO[C@H]1O[C@H](CO)[C@H](O)[C@H](O)[C@H]1O [Melibiose, α-D-galactopyranosyl-(1→6)-D-glucose]
Increase in AUC of Plasma active GLP-1 (active GLP-1 in plasma [1]; sweetener 6 g/kg orally alone (purified water instead of DPP4 inhibitor)): 95 ± 2 pM·h | Plasma active GLP-1 concentration (relative value) (active GLP-1 in plasma [3]; [12]): 454 | body weights as compared with the control group [2]: body weights significantly decreased as compared with the control group | body weight as compared with the control group [2, 9]: no significant differences as compared with the control group | Body weight gain after 13 days [2, 10]: 2.2 ± 0.2 g | Body weight gain after 13 days [2, 11]: 0.9 ± 0.4 g

OC[C@H]1O[C@H](OC[C@H]2O[C@H](O[C@]3(CO)O[C@H](CO)[C@@H](O)[C@@H]3O)[C@H](O)[C@@H](O)[C@@H]2O)[C@H](O)[C@@H](O)[C@H]1O [Raffinose, β-D-fructofuranosyl α-D-galactopyranosyl-(1→6)-α-D-glucopyranoside]
Plasma active GLP-1 concentration (relative value) (active GLP-1 in plasma [3]; [12]): 77

OC[C@@H](O)[C@@H](O)[C@H](O)[C@@H](O)CO [Sorbitol, sorbitol]
body weights as compared with the control group [4, 13]: decreases in body weights were observed | body weights as compared with the control group [4, 14]: decreases in body weights were not observed | Body weight gain After 8 days [4]: -0.7 ± 0.4 g | Body weight gain After 15 days [4]: 0.8 ± 0.3 g | Plasma active GLP-1 concentration (relative value) (active GLP-1 in plasma [3]; [8]): 286 | Plasma active GLP-1 concentration (relative value) (active GLP-1 in plasma [3]; [12]): 863

OC[C@H]1O[C@H](O[C@]2(CCl)O[C@H](CCl)[C@@H](O)[C@@H]2O)[C@H](O)[C@@H](O)[C@H]1Cl [Sucralose, sucralose]
Plasma active GLP-1 concentration (relative value) (active GLP-1 in plasma [3]; [12]): 166

OC[C@H]1O[C@@](CO)(O[C@H]2O[C@H](CO)[C@@H](O)[C@H](O)[C@H]2O)[C@@H](O)[C@@H]1O [sucrose]
blood GLP-1 levels following administration (GLP-1): blood GLP-1 levels are increased
